Test results published in ChEMBL document CHEMBL4376886, “Design, Synthesis, and Evaluation of Novel Enterovirus 71 Inhibitors as Therapeutic Drug Leads for the Treatment of Human Hand, Foot, and Mouth Disease” (J Med Chem, 2020).
pEC50: −log10 of the molar value.

Experiments:
[1] = rat, in vivo, ip, 5 mg/kg, 24 h
Description: AUC (0 to t) in Sprague-Dawley rat at 5 mg/kg, ip administered as single dose measured upto 24 hrs by LC-MS/MS analysis

[2] = Apparent clearance during terminal phase in Sprague-Dawley rat at 5 mg/kg, po administered as single dose measured upto 24 hrs by LC-MS/MS analysis; assay type: ADME, organism-based; details: in vivo, read-out: CLz/F (converted)
[3] = Cytotoxicity against human RD cells assessed as reduction in cell viability incubated for 24 hrs by MTT assay; details: rd
[4] = Acute toxicity in juvenile zebrafish assessed as fatality rate at 100 uM after 48 hrs; details: in vivo
[5] = Acute toxicity in juvenile zebrafish assessed as fatality rate at 20 uM after 48 hrs; details: in vivo
[6] = Subacute toxicity in PND14 Sprague-Dawley rat assessed as hair loss at 100 mg/kg/day, po administered via gavage for 14 days and measured for 28 days; assay type: organism-based; details: in vivo, 672 h
[7] = Apparent clearance during terminal phase in Sprague-Dawley rat at 1 mg/kg, iv administered as single dose measured upto 24 hrs by LC-MS/MS analysis; assay type: ADME, organism-based; details: in vivo
[8] = Cmax in Sprague-Dawley rat at 1 mg/kg, iv administered as single dose measured upto 24 hrs by LC-MS/MS analysis; assay type: ADME, organism-based; set-up: dose 1 mg/kg, route intravenous; details: in vivo
Enterovirus A71 = experiment: Antiviral activity against Enterovirus 71 genotype C4 infected in BALB/c mouse assessed as protection rate at 10 mg/kg/day, ip qd for 7 days administration starting from 48 hrs post-infection and measured for 14 days; assay type: functional
[9] = Apparent half-life of the terminal disposition phase in Sprague-Dawley rat at 5 mg/kg, po administered as single dose measured upto 24 hrs by LC-MS/MS analysis; assay type: ADME, organism-based; details: in vivo, read-out: t1/2 lambda z (converted)
in vivo [10] = details: zebrafish
Description: Acute toxicity in juvenile zebrafish assessed as fatality rate at 150 uM after 48 hrs

[11] = Acute toxicity in juvenile zebrafish assessed as fatality rate at 50 uM after 24 hrs; details: in vivo
in vivo [12] = details: Sprague-Dawley, rat, ip, 5 mg/kg
Description: Cmax in Sprague-Dawley rat at 5 mg/kg, ip administered as single dose measured upto 24 hrs by LC-MS/MS analysis

[13] = Apparent half-life of the terminal disposition phase in Sprague-Dawley rat at 1 mg/kg, iv administered as single dose measured upto 24 hrs by LC-MS/MS analysis; assay type: ADME, organism-based; details: in vivo, read-out: t1/2 lambda z (converted)
[14] = Acute toxicity in juvenile zebrafish assessed as fatality rate at 20 uM after 24 hrs; details: in vivo
[15] = Subacute toxicity in PND21 Sprague-Dawley rat assessed as development of opaque lens at 100 mg/kg/day, po administered via gavage for 14 days and measured for 28 days; assay type: organism-based; details: in vivo, 672 h
[16] = Inhibition of capsid protein VP1 in Enterovirus 71 (FY)-Luc infected in human RD cells assessed as reduction in virus-induced cell death preincubated for 24 hrs followed by […] substrate addition and measured after 5 mins by chemiluminescence analysis; assay type: cell-based, Enterovirus A71; details: Enterovirus A
in vivo [17] = details: Sprague-Dawley, rat, ip, 5 mg/kg; remark: listed apart in the source
Description: Apparent clearance during terminal phase in Sprague-Dawley rat at 5 mg/kg, ip administered as single dose measured upto 24 hrs by LC-MS/MS analysis

[18] = Subacute toxicity in PND14 Sprague-Dawley rat assessed as quadriplegia at 100 mg/kg/day, po administered via gavage for 14 days and measured for 28 days; assay type: organism-based; details: in vivo, 672 h
[19] = Subacute toxicity in PND4 Sprague-Dawley rat assessed as irreversible opaqueness of lens at 30 to 50 mg/kg/day, po administered via gavage for 14 days and measured for 28 days; assay type: organism-based; details: in vivo, 672 h
[20] = Subacute toxicity in PND7 Sprague-Dawley rat assessed as animal survival at 30 to 50 mg/kg/day, po administered via gavage for 14 days and measured for 28 days; assay type: organism-based; details: in vivo
[21] = AUC (0 to t) in Sprague-Dawley rat at 5 mg/kg, po administered as single dose measured upto 24 hrs by LC-MS/MS analysis; assay type: ADME, organism-based; details: in vivo
[22] = Subacute toxicity in PND14 Sprague-Dawley rat assessed as development of opaque lens at 100 mg/kg/day, po administered via gavage for 14 days and measured for 28 days; assay type: organism-based; details: in vivo, 672 h
in vivo [23] = details: Sprague-Dawley, rat, ip, 5 mg/kg; remark: listed apart in the source
Description: Apparent half-life of the terminal disposition phase in Sprague-Dawley rat at 5 mg/kg, ip administered as single dose measured upto 24 hrs by LC-MS/MS analysis

[24] = Acute toxicity in juvenile zebrafish assessed as fatality rate at 100 uM after 24 hrs; details: in vivo
[25] = Bioavailability in Sprague-Dawley rat at 5 mg/kg, ip administered as single dose measured upto 24 hrs by LC-MS/MS analysis; details: in vivo
[26] = Subacute toxicity in PND21 Sprague-Dawley rat assessed as hair loss at 100 mg/kg/day, po administered via gavage for 14 days and measured for 28 days; assay type: organism-based; details: in vivo, 672 h
[27] = Acute toxicity in juvenile zebrafish assessed as fatality rate at 200 uM after 48 hrs; details: in vivo
[28] = Subacute toxicity in PND14 Sprague-Dawley rat assessed as lens fiber loosening and vacuolar degeneration at 100 mg/kg/day, po administered via gavage for 14 days and measured at day 28 by hematoxylin and eosin staining based histopathological analysis; assay type: organism-based; details: in vivo, 336 h
[29] = Tmax in Sprague-Dawley rat at 5 mg/kg, po administered as single dose measured upto 24 hrs by LC-MS/MS analysis; assay type: ADME, organism-based; details: in vivo
[30] = Acute toxicity in juvenile zebrafish assessed as fatality rate at 200 uM after 24 hrs; details: in vivo
[31] = Cmax in Sprague-Dawley rat at 5 mg/kg, po administered as single dose measured upto 24 hrs by LC-MS/MS analysis; assay type: ADME, organism-based; set-up: dose 5 mg/kg, route oral; details: in vivo
[32] = Subacute toxicity in PND7 Sprague-Dawley rat assessed as irreversible opaqueness of lens at 30 to 50 mg/kg/day, po administered via gavage for 14 days and measured for 28 days; assay type: organism-based; details: in vivo, 672 h
in vivo [33] = details: zebrafish; remark: listed apart in the source
Description: Acute toxicity in juvenile zebrafish assessed as fatality rate at 150 uM after 24 hrs

[34] = Acute toxicity in juvenile zebrafish assessed as fatality rate at 50 uM after 48 hrs; details: in vivo
[35] = Subacute toxicity in PND21 Sprague-Dawley rat assessed as quadriplegia at 100 mg/kg/day, po administered via gavage for 14 days and measured for 28 days; assay type: organism-based; details: in vivo, 672 h
[36] = AUC (0 to t) in Sprague-Dawley rat at 1 mg/kg, iv administered as single dose measured upto 24 hrs by LC-MS/MS analysis; assay type: ADME, organism-based; details: in vivo
[37] = Metabolic stability in Sprague-Dawley rat liver microsomes assessed as intrinsic clearance measured upto 300 mins in presence of NADP+ by HPLC analysis
[38] = Subacute toxicity in PND4 Sprague-Dawley rat assessed as animal survival at 30 to 50 mg/kg/day, po administered via gavage for 14 days and measured for 28 days; assay type: organism-based; details: in vivo
in vivo [39] = details: Sprague-Dawley, rat, ip, 5 mg/kg; remark: listed apart in the source
Description: Tmax in Sprague-Dawley rat at 5 mg/kg, ip administered as single dose measured upto 24 hrs by LC-MS/MS analysis

[40] = Oral bioavailability in Sprague-Dawley rat at 5 mg/kg administered as single dose measured upto 24 hrs by LC-MS/MS analysis; assay type: ADME, organism-based; details: in vivo

## CCO/N=C/c1ccc(OCCC(C)CCN2CCN(c3ccnc(N)c3)C2=O)cc1 (stereo unspecified)
[1]
  AUCt: 258 ng·h/mL
[2]
  CL/F: 1600 mL/min/kg
[3]
  CC50 at 24 h: 29.4 µM
[4]
  mortality at 48 h, 100 µM: 100%
[5]
  mortality at 48 h, 20 µM: 100%
[6]
  Activity: Toxic
[7]
  CLz/F: 13.2 mL/min/kg
[8]
  Cmax: 23.3 ng/mL
Enterovirus A71
  Activity: 100%
[9]
  half-life: 2.99 h
In vivo [10]
  mortality at 48 h, 150 µM: 100%
[11]
  mortality at 24 h, 50 µM: 100%
In vivo [12]
  Cmax at 24 h: 149 ng/mL
[13]
  half-life: 0.5 h
[14]
  mortality at 24 h, 20 µM: 100%
[15]
  Activity: Toxic
[16]
  pEC50: 10.60
In vivo [17]
  CL/F at 24 h: 381 mL/min/kg
[18]
  Activity: Toxic
[19]
  Activity: Toxic
[20]
  survival at 672 h: 100%
[21]
  AUCt: 222 ng·h/mL
[22]
  Activity: Toxic
In vivo [23]
  half-life at 24 h: 2.64 h
[24]
  mortality at 24 h, 100 µM: 100%
[25]
  bioavailability at 24 h: 85%
[26]
  Activity: Toxic
[27]
  mortality at 48 h, 200 µM: 100%
[28]
  Activity: Toxic
[29]
  Tmax: 1 h
[30]
  mortality at 24 h, 200 µM: 100%
[31]
  Cmax: 81.8 ng/mL
[32]
  Activity: Toxic
In vivo [33]
  mortality at 24 h, 150 µM: 100%
[34]
  mortality at 48 h, 50 µM: 100%
[35]
  Activity: Toxic
[36]
  AUCt: 60.8 ng·h/mL
[37]
  microsomal CLint at 5 h: 38.9 µL/min/mg
[38]
  survival at 672 h: 100%
In vivo [39]
  Tmax at 24 h: 0.5 h
[40]
  bioavailability: 73.3%
